From ChEMBL document CHEMBL1201862, “PubChem BioAssay data set” (2004)
Values belong to the molecule of their own block, whether it stands above or below them. Activity calls are given as the source filed them.

How the values were obtained:
[1] = target: Induced myeloid leukemia cell differentiation protein Mcl-1 (Homo sapiens, UniProt Q07820); type: functional
[2] = target: T1, Carboxy-terminal domain RNA polymerase II polypeptide A small phosphatase 1 (Homo sapiens, UniProt Q9GZU7); experiment: CTDSP1 inhibitors, concentration-response, biochemical, absorbance readout, ultra-high-throughput screen actives (AID 540297); type: functional
T1 sequence (Q9GZU7 whole entry): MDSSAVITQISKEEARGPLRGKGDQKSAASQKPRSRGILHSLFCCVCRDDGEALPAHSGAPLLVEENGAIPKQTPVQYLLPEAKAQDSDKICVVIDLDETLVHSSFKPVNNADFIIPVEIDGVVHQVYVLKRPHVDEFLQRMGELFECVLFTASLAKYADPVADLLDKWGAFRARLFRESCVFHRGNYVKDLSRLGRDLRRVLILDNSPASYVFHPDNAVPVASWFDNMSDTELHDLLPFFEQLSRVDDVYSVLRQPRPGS

[3] = target: T2, Calpain-2 catalytic subunit (Sus scrofa, UniProt P43367); experiment: m-calpain protease blockers, concentration series – biochemical, fluorogenic peptide substrate, dose response (AID 1420); type: functional
T2 sequence (P43367 whole entry): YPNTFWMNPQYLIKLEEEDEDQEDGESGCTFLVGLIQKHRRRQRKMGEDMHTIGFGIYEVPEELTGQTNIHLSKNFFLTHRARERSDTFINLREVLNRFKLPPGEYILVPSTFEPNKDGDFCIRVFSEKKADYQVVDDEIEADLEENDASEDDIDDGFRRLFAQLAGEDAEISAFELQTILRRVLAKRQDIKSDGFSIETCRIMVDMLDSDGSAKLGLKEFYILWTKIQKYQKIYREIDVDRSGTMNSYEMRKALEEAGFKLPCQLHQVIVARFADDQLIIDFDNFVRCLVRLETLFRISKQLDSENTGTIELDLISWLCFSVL

[4] = HEK-293T cell viability reduction – luminescence, B-cell screen hits, cytotoxicity control for BCR NF-kB inhibitor project, dose response (AID 489021); type: functional, cell-based;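 note: HEK-293T cells carrying an NF-kB luciferase reporter; cells exposed to compound for about 14 hours before viability readout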
[5] = target: T3, Cytochrome P450 3A4 (Homo sapiens, UniProt P08684); details: Potency
T3 sequence (P08684 whole entry): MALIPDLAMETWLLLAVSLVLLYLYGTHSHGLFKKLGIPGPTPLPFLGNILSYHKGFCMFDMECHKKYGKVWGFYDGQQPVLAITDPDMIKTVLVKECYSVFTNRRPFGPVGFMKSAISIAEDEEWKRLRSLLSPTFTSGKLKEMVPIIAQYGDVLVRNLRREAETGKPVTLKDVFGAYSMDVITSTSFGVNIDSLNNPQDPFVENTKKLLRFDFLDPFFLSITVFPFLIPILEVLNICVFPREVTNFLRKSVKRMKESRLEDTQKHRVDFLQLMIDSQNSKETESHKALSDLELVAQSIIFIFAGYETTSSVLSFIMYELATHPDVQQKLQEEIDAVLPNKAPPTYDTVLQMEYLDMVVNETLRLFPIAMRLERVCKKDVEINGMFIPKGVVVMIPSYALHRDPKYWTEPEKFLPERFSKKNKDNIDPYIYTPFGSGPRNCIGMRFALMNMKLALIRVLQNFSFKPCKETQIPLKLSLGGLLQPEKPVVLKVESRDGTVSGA

[6] = target: T3, Cytochrome P450 3A4
[7] = target: Voltage-dependent T-type calcium channel subunit alpha-1H (Homo sapiens, UniProt O95180); type: functional;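 note: channel activity triggered by adding a high calcium stimulation buffer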
Sequence of Voltage-dependent T-type calcium channel subunit alpha-1H (O95180 whole entry): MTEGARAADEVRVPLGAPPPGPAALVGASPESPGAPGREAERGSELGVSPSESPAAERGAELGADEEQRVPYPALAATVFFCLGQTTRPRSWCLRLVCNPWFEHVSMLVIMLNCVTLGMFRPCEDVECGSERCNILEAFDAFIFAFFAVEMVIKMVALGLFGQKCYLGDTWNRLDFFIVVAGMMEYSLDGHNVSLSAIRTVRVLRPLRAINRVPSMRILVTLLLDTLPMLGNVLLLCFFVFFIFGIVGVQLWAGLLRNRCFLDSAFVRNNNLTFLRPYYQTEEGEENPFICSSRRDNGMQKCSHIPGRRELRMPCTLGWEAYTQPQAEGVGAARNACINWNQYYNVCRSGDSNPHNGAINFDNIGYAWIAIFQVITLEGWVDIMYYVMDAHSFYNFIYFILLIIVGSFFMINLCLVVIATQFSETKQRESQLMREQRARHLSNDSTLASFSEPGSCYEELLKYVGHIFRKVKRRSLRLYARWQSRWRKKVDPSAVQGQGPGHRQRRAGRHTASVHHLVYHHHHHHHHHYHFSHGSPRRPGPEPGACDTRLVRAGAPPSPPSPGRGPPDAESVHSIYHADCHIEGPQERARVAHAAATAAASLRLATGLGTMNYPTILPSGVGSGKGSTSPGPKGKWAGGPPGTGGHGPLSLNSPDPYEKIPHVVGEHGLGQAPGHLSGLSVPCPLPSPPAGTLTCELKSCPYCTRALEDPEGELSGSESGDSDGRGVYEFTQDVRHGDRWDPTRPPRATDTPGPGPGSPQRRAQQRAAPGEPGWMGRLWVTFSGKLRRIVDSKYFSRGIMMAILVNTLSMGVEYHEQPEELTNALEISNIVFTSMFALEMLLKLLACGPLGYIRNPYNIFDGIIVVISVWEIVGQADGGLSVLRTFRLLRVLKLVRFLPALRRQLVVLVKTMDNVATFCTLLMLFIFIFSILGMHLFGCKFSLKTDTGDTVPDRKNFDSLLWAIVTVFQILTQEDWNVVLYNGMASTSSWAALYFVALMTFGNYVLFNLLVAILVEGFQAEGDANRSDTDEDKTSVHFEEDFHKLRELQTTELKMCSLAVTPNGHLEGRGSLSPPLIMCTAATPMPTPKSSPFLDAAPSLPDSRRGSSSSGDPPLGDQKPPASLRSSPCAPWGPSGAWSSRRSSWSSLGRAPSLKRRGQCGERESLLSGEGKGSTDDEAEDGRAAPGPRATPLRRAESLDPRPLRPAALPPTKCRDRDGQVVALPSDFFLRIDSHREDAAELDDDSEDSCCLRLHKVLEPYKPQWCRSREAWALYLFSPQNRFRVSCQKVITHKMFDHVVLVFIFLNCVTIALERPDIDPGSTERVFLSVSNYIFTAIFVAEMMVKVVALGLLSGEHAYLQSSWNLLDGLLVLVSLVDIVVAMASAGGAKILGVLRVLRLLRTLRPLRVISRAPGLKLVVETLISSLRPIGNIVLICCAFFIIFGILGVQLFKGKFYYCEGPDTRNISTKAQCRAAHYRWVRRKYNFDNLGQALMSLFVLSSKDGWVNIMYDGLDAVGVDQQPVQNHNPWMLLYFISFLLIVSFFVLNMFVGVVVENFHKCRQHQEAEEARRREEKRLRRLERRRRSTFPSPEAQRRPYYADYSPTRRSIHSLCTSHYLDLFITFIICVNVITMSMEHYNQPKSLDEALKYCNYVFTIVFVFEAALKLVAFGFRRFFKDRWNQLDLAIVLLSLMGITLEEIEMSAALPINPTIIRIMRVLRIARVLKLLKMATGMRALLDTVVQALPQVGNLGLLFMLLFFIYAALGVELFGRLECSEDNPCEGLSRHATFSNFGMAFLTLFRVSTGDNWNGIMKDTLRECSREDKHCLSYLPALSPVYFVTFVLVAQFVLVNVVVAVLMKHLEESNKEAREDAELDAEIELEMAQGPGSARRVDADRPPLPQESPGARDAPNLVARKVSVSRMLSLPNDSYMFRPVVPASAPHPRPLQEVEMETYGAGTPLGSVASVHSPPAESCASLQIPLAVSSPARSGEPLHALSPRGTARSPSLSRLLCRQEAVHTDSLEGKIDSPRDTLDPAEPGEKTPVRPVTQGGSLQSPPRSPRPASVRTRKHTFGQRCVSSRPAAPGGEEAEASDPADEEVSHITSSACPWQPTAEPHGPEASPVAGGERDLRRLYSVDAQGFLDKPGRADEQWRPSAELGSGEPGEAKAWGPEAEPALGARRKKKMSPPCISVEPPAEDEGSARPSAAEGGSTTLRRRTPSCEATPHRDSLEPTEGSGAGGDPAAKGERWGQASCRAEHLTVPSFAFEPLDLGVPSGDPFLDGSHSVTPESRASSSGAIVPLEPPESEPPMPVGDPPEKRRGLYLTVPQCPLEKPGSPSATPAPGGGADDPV

[8] = target: T4, Aminopeptidase N (Plasmodium falciparum FcB1/Columbia, UniProt O96935); experiment: malaria alanyl aminopeptidase activity blockers – biochemical, fluorogenic H-Leu-NHMec substrate, 1536-well (AID 1445); parameters: species or system Plasmodium falciparum 3D7, 3D7
T4 sequence (O96935 whole entry): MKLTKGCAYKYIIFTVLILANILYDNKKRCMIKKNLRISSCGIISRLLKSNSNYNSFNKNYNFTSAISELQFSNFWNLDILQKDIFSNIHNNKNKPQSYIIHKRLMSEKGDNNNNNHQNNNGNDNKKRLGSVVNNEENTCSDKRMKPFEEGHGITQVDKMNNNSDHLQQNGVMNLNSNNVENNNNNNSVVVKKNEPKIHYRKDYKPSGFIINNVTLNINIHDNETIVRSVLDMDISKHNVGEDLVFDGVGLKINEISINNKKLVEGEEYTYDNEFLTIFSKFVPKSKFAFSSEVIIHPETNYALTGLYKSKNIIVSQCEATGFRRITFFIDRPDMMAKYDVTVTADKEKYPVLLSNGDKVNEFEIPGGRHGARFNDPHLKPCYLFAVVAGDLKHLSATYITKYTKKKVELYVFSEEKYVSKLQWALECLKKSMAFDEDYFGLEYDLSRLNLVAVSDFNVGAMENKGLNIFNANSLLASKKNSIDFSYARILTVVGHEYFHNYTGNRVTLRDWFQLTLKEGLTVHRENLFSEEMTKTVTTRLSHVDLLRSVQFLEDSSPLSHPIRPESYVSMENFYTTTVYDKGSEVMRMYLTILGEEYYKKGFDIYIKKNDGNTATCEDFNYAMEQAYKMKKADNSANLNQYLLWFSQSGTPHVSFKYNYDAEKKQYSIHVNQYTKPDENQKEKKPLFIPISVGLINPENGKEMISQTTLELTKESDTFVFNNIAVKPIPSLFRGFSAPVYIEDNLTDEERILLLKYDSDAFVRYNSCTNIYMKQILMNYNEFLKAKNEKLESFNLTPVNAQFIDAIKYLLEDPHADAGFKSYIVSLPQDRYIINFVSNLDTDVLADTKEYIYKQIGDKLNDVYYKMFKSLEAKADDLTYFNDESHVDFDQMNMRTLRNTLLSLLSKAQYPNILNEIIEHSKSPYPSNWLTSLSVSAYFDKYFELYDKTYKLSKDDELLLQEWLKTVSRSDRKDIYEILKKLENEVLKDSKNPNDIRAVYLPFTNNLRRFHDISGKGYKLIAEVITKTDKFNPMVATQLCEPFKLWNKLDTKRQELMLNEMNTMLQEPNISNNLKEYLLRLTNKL

[9] = target: T5, Leucine aminopeptidase (Plasmodium falciparum 3D7, UniProt Q8IL11); experiment: P. falciparum M17LAP inhibitors, primary screen, biochemical, fluorogenic H-Leu-NHMec substrate, 1536-well (AID 1619); type: functional
T5 sequence (Q8IL11 whole entry): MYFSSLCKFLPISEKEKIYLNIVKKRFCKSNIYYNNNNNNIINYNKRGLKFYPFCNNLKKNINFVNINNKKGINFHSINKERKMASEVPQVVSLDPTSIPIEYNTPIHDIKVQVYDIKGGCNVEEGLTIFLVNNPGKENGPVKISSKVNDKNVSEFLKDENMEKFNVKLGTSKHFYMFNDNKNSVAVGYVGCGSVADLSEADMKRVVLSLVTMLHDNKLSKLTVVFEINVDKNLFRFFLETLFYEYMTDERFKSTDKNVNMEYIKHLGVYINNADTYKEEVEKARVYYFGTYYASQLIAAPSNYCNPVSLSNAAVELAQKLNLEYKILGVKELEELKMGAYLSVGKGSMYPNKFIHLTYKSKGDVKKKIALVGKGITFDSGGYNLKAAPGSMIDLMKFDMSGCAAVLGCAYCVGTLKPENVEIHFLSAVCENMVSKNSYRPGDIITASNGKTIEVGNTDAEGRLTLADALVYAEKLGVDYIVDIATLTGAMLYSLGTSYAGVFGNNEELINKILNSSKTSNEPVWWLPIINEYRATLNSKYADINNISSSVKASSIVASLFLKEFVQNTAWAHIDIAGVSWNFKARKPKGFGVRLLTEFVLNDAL

[10] = cells; type: functional, cell-based
[11] = cells; type: functional, cell-based; remark: listed apart in the source
[12] = tested on: INS1; experiment: INS-1E survival protection against cytokine death – cell-based, luminescence, retest, dose response (AID 449756); type: functional; details: Rattus norvegicus;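 note: cell death triggered by IL-1 beta plus TNF-alpha plus IFN-gamma mixture; protective hits raise ATP signal compared with cytokine alone wells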
[13] = target: Prothrombin (Homo sapiens, UniProt P00734); experiment: Thrombin 1536 HTS Dose Response Confirmation. [Related pubchem assays: 1046 (Thrombin 1536 HTS; hits were confirmed in this assay)]; type: functional
[14] = NIH-3T3 fibroblast cytotoxicity, dose response, cytotoxicity control, cell-based, fluorescence, Alamar Blue, secondary assay (AID 2327); type: functional;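 note: NIH-3T3 mouse fibroblasts cultured with fluconazole at 8 µg/mL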
[15] = fluconazole-exposed Candida albicans growth modulators – fluorescence, retest, confirmation (AID 2467); type: functional, cell-based

Sequence of Induced myeloid leukemia cell differentiation protein Mcl-1 (Q07820 whole entry, the tested form may be a part): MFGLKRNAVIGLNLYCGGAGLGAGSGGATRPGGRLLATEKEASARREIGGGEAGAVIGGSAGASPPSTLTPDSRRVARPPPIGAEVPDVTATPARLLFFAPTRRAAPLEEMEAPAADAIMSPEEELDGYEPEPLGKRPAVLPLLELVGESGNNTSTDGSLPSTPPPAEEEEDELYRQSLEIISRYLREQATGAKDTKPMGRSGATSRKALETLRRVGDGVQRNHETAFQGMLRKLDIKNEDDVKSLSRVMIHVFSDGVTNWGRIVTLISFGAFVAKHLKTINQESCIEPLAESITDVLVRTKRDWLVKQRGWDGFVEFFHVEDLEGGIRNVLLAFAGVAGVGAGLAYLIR

- IC50 [1]: 9.49 µM (not active)
SMILES: O=C1C2C3C=CC(C2C(=O)N1c1cccc(O)c1)C1C2C(=O)N(c4cccc(O)c4)C(=O)C2C31 (stereo not given)

- EC50 [7]: 550 µM (active)
SMILES: O=c1oc2ccccc2n1CSc1nc2ccccc2s1

- AC50 [5]: 10 µM (inconclusive)
SMILES: CCC1=C(OC(=O)N(CC)CC)N2C(=O)O/C(=N\CCOC)[C@]2(C)[C@H]2C1=CC[C@H]1C(=O)NC(=O)[C@H]12

- IC50 [8]: 63.9 µM (active)
SMILES: CC(C)C[C@H](NC(=O)c1[nH]cnc1C(=O)NC1CCN(C(=O)OC(C)(C)C)CC1)C(=O)OC(C)(C)C

- AC50 [5]: 15.8 µM (inconclusive)
SMILES: C=CC(C1=CC(=O)C(OC)=C(OC)C1=O)c1ccccc1 (stereo not given)

- AC50 [5]: 12.6 µM (inconclusive)
SMILES: CCCn1c(C)nc2c(N(CCN(C)C)Cc3ccccc3)nc(C)nc21

- IC50 [8]: 37.5 µM (active)
SMILES: Cc1c(O)c(CN2CCCCC2)cc2c3c(c(=O)oc12)CCC3

- EC50 [7]: 6.34 µM (active)
SMILES: Cc1[nH]c2ccccc2c1SCC(=O)N1CCCc2ccccc21

- IC50 [13]: > 50 µM (not active)
SMILES: CCOc1cc(S(=O)(=O)N2CCCCC2)ccc1Cl

- EC50 [7]: 10.2 µM (active)
SMILES: Cc1ccc(N(C(=O)Cc2c[nH]c3ccccc23)C(C(=O)NC2CCCCC2)c2ccco2)cc1 (stereo not given)

- IC50 [13]: 0.103 µM (active)
SMILES: COCC(=O)n1nc(-c2ccccc2)nc1NCc1ccc(F)cc1

The remaining lines, values behind:

SMILES: CCc1nnc(NC(=O)c2cc(-c3ccco3)nc3ccccc23)s1
- IC50 [1]: 3.18 µM (active)
- IC50 [2]: 4.01 µM (active)

SMILES: CCCC(=O)Nc1ccc(Sc2ccc([N+](=O)[O-])cc2)cc1
- IC50 [3]: 10.7 µM (not active)
- IC50 [4]: 77.8 µM (inactive)

SMILES: Clc1ccc2c(c1)C(N1CCNCC1)=Nc1ccccc1O2 [AMOXAPINE]
- AC50 [5]: 10 µM (inconclusive)
- AC50 [6]: 15.8 µM (inconclusive)

SMILES: O=C(O)C/C(=C\c1ccc(Cl)cc1)c1nc2ccccc2o1
- IC50 [9]: 105 µM (active)
- IC50 [8]: 33.9 µM (active)

SMILES: Cc1c(O)ccc(/C=N/Nc2nc(-c3cccnc3)nc3ccccc23)c1O
- IC50 [1]: 6.03 µM (active)

SMILES: Cn1cccc1Cc1nnc(SCC(=O)Nc2ccccc2)n1-c1ccc(F)cc1
- EC50 [7]: 2.44 µM (active)

SMILES: CCC(=O)N1c2ccccc2C(N(C(C)=O)c2ccccc2)CC1C (stereo not given)
- EC50 [10]: > 350 µM (not active)
- EC50 [11]: > 350 µM (not active)
- IC50 [4]: > 80 µM (inactive)

SMILES: CC(=O)c1cccc(S(=O)(=O)Nc2cc(C(F)(F)F)ccc2N2CCOCC2)c1
- IC50 [4]: > 80 µM (inactive)

SMILES: CCN1C(=O)c2cccc3c(S(=O)(=O)Nc4ccccc4)ccc1c23
- IC50 [4]: > 80 µM (inactive)

SMILES: CCOC(=O)C1=C(Nc2ccc(OC)cc2)S/C(=C\c2ccc(OCC(=O)O)c(OCC)c2)C1=O
- IC50 [9]: 21.3 µM (active)
- IC50 [8]: 36.3 µM (active)

SMILES: O=C1/C(=C/c2ccccn2)SC(=S)N1c1ccc(O)cc1
- IC50 [1]: 5.85 µM (active)

SMILES: C/C=C/C1Oc2ccc(OC)cc2N2C(=O)C(C)C(OCOC)C12 (stereo not given)
- AC50 [5]: 3.98 µM (inconclusive)

SMILES: Cc1ccc(NC(=O)c2c(-c3c(F)cccc3Cl)noc2C)cc1F
- EC50 [7]: 5.69 µM (active)
- AC50 [12]: > 260 µM (inactive)

SMILES: CC(C)C(c1nnnn1Cc1ccccc1)N(Cc1ccco1)Cc1cccs1 (stereo not given)
- IC50 [4]: > 80 µM (inactive)

SMILES: CCOP(=O)(OCC)c1nc(-c2cccc([N+](=O)[O-])c2)oc1N1CCCCC1
- IC50 [8]: 50.1 µM (active)

SMILES: Nc1nonc1C(=O)N/N=C/c1cc(Br)ccc1O
- EC50 [14]: > 160 µM (inactive)
- IC50 [8]: 3.45 µM (active)
- EC50 [10]: 108 µM (active)
- EC50 [15]: 0.782 µM (active)
- EC50 [11]: > 350 µM (not active)

SMILES: C=CCNC(=O)c1cc([N+](=O)[O-])cc2c(=O)[nH]c(Nc3ccc(Cl)c(Cl)c3)nc12
- AC50 [5]: 10 µM (inconclusive)
